For experiment [1], the system named is adjuvant-induced arthritis in rats. Description: Established Adjuvant-Induced Arthritis in Rats. The format is in vivo, Lewis (Wistar) male rats. The conditions noted are these: Rattus norvegicus; for inhibition in vivo at 9 mg/kg: Table 3, dose 9 mg/kg; for ED50: oral once daily 7 days (days 14-20), decrease from control paw volume, day 21.
For experiment [2], the system named is phenylquinone writhing in mice. The experiment can be described thus: Phenylquinone Writhing Test. The conditions noted are these: Mus musculus, oral, observed from 30 minutes after dosing for 10 minutes. In kind it is in vivo, female white mice. As for the experimental part:
Aqueous (0.10% phenyl-p-benzoquinone) phenylquinone was injected intraperitoneally at 24 minutes later using 0.20 ml per mouse.

[3] abbreviates: 168 h, Table 4, dose 25 mg/kg, oral once daily 7 days, read-out: Adjuvant Arthritis, percent reduction in paw volume at the indicated dose.
Where [4] appears, read: 168 h, oral once daily 7 days, read-out: Adjuvant Arthritis, percent reduction in paw volume at the indicated dose.
Where [5] appears, read: 168 h, Table 3, dose 50 mg/kg, oral once daily 7 days, read-out: Adjuvant Arthritis, percent reduction in paw volume at the indicated dose.
Where [6] appears, read: 168 h, Table 3, dose 25 mg/kg, oral once daily 7 days, read-out: Adjuvant Arthritis, percent reduction in paw volume at the indicated dose.

In patent US4372964A, “Antiinflammatory 4,5-diaryl-1H-imidazole-2-methanols” (E. I. Du Pont de Nemours and Company, priority 1981, dated 1983) one finds inhibition in vivo and ED50 data, which are given here for 32 compounds.

SMILES strings stand for the structures. Read-outs that look alike come from different tables or passages of the source.

In the case of `CC(=O)c1nc(-c2ccc(F)cc2)c(-c2ccc(F)cc2)[nH]1` [Example 41], the inhibition in vivo at 25 mg/kg in experiment [1] (setting [3]) came out at 0%.
For `COc1ccc(-c2nc(C(C)(O)C3CC3)[nH]c2-c2ccc(OC)cc2)cc1` (stereo not drawn) [Example 33], the inhibition in vivo at 9 mg/kg in experiment [1] (setting [4]) stood at 46%. Besides, in experiment [2] (Table 3, Formula I), the ED50 was determined as 5.6 mg/kg.
Consider `COc1ccc(-c2nc(C(C)O)[nH]c2-c2ccc(OC)cc2)cc1` (stereo not drawn) [Example 35], for which the ED50 in experiment [1] (Table 3, Formula I) amounted to 3.6 mg/kg; in experiment [2] (Table 3, Formula I), 26 mg/kg.
Regarding `COc1ccc(-c2nc(C(=O)C(F)(F)C(F)(F)F)[nH]c2-c2ccc(OC)cc2)cc1` [Example 38, 1-[4,5-bis(4-methoxyphenyl)-1H-imidazol-2-yl]-2,2,3,3,3-pentafluoro-1-propanone], the inhibition in vivo at 25 mg/kg in experiment [1] (setting [3]) came out at 62%. In addition, in experiment [2] (Table 4, Formula II), the ED50 came out at 2.3 mg/kg.
Take `CCC(C)(O)c1nc(-c2ccc(OC)cc2)c(-c2ccc(OC)cc2)[nH]1` (stereo not drawn) [Example 34]: the inhibition in vivo at 50 mg/kg in experiment [1] (setting [5]) was 82%. The same compound had an ED50 in experiment [2] (Table 3, Formula I) of 5.2 mg/kg.
Turning to `COc1ccc(-c2nc(C(OC)(C(F)(F)F)C(F)(F)F)[nH]c2-c2ccc(OC)cc2)cc1` [Example 7, 4,5-Bis(4-methoxyphenyl)-2-[1-methoxy-2,2,2-trifluoro-1-(trifluoromethyl)ethyl]-1H-imidazole], the ED50 came out at 4.4 mg/kg in experiment [1] (Table 3, Formula I) and 32 mg/kg in experiment [2] (Table 3, Formula I).
On the same counts, the results for `COc1ccc(-c2nc(C(O)(C(F)(F)F)C(F)(F)F)[nH]c2-c2ccc(OC)cc2)cc1` [Example 2, 4,5-Bis(4-methoxyphenyl)-α,α-di(trifluoromethyl)-1H-imidazole-2-methanol] are 5 mg/kg and 2.7 mg/kg.
With `COc1ccc(-c2nc(C(C)(O)C(F)(F)F)[nH]c2-c2ccc(OC)cc2)cc1` (stereo not drawn) [Example 18, 4,5-bis(4-methoxyphenyl)-α-methyl-α-trifluoromethyl-1H-imidazole-2-methanol], the ED50 in experiment [1] (Table 3, Formula I) turned out to be 5.4 mg/kg; in experiment [2] (Table 3, Formula I), 2.2 mg/kg.
With `O=C(c1nc(-c2ccc(F)cc2)c(-c2ccc(F)cc2)[nH]1)C(F)(F)C(F)(F)F` [Example 39, 1-[4,5-bis(4-fluorophenyl)-1H-imidazol-2-yl]-2,2,3,3,3-pentafluoro-1-propanone], the ED50 in experiment [1] (Table 4, Formula II) worked out at 3 mg/kg.
For `CC(=O)OC(c1nc(-c2ccc(F)cc2)c(-c2ccc(F)cc2)[nH]1)(C(F)(F)F)C(F)(F)F` [Example 25], the ED50 in experiment [1] (Table 3, Formula I) is 13 mg/kg; in experiment [2] (Table 3, Formula I), > 108 mg/kg.
`OC(c1nc(-c2ccccc2)c(-c2ccc(Cl)c(Cl)c2)[nH]1)(C(F)(F)F)C(F)(F)F` [Example 17]: the inhibition in vivo at 50 mg/kg in experiment [1] (setting [5]) was determined as 21%.
Take `COc1ccc(-c2nc(C(O)(C(F)(F)F)C(F)(F)Cl)[nH]c2-c2ccc(OC)cc2)cc1` (stereo not drawn) [Example 12]: the ED50 in experiment [1] (Table 3, Formula I) was 6 mg/kg; in experiment [2] (Table 3, Formula I), 42 mg/kg.
For `COc1ccc(-c2nc(C(=O)C(F)(F)F)[nH]c2-c2ccc(OC)cc2)cc1` [Example 9, 1-[4,5-Bis(4-methoxyphenyl)-1H-imidazol-2-yl]2,2,2-trifluoro-1-ethanone], the ED50 in experiment [1] (Table 4, Formula II) was 25 mg/kg; in experiment [2] (Table 4, Formula II) it was > 108 mg/kg.
Regarding `CC(C)(O)c1nc(-c2ccc(F)cc2)c(-c2ccc(F)cc2)[nH]1` [Example 28], the inhibition in vivo at 50 mg/kg in experiment [1] (setting [5]) turned out to be 48%. Further, in experiment [2] (Table 3, Formula I), the ED50 was > 108 mg/kg.
As for `OC(c1nc(-c2ccc(F)cc2)c(-c2ccc(F)cc2)[nH]1)(C(F)F)C(F)(F)F` (stereo not drawn) [Example 16, 4,5-bis(4-fluorophenyl)-α-difluoromethyl-α-trifluoromethyl-1H-imidazole-2-methanol], the 50% effective dose (ED50) was 4.8 mg/kg in experiment [1] (Table 3, Formula I) and > 108 mg/kg in experiment [2] (Table 3, Formula I).
In the same order, the values of `OC(c1nc(-c2ccc(F)cc2)c(-c2cccs2)[nH]1)(C(F)(F)F)C(F)(F)F` [Example 14] are 90 mg/kg and > 108 mg/kg.
On the same counts, the results for `CCCC(O)(c1nc(-c2ccc(F)cc2)c(-c2ccc(F)cc2)[nH]1)C(F)(F)F` (stereo not drawn) [Example 32] are 8.6 mg/kg and > 108 mg/kg.
Consider `CSc1ccc(-c2[nH]c(C(O)(C(F)(F)F)C(F)(F)F)nc2-c2ccc(F)cc2)cc1` [Example 21], for which the inhibition in vivo at 15 mg/kg in experiment [1] (168 h, Table 3, dose 15 mg/kg, oral once daily 7 days, read-out: Adjuvant Arthritis, percent reduction in paw volume at the indicated dose) was 61%.
Take `COc1ccc(-c2nc(C(O)(C(F)(F)Cl)C(F)(F)Cl)[nH]c2-c2ccc(OC)cc2)cc1` [Example 13]: the ED50 in experiment [1] (Table 3, Formula I) was determined as 15 mg/kg; in experiment [2] (Table 3, Formula I), 135 mg/kg.
Take `Cn1c(C(C)(C)O)nc(-c2ccc(F)cc2)c1-c1ccc(F)cc1` [Example 26]: in experiment [1] (setting [6]), the inhibition in vivo at 25 mg/kg amounted to 47%. The ED50 in experiment [2] (Table 3, Formula I) is > 108 mg/kg.
`COc1ccc(-c2nc(C(C)(O)C(F)(F)C(F)(F)F)[nH]c2-c2ccc(OC)cc2)cc1` (stereo not drawn) [Example 29, 4,5-bis(4-methoxyphenyl)-α-methyl-α-pentafluoroethyl-1H-imidazole-2-methanol]: the ED50 in experiment [1] (Table 3, Formula I) amounted to 15 mg/kg; in experiment [2] (Table 3, Formula I) it was 3.5 mg/kg.
Consider `COc1ccc(-c2nc(C(=O)C(F)(F)F)n(C)c2-c2ccc(OC)cc2)cc1` [Example 36, 1-[4,5-bis(4-methoxyphenyl)-1-methyl-1H-imidazol-2-yl]-2,2,2-trifluoro-1-ethanone], for which the inhibition in vivo at 25 mg/kg in experiment [1] (setting [3]) came out at 28%. Also, the ED50 in experiment [2] (Table 4, Formula II) was > 108 mg/kg.
Regarding `COc1ccc(-c2nc(C(OC(C)=O)(C(F)(F)F)C(F)(F)F)n(C)c2-c2ccc(OC)cc2)cc1` [Example 5, 4,5-Bis(4-methoxyphenyl)-1-methyl-α,α-di(trifluoromethyl)-1H-imidazole-2-methanol, Acetate], in experiment [1] (setting [6]), the inhibition in vivo at 25 mg/kg was 45%. Also, the ED50 in experiment [2] (Table 3, Formula I) was > 108 mg/kg.
For the compound `COc1ccc(-c2nc(C(O)C(F)(F)F)n(C)c2-c2ccc(OC)cc2)cc1` (stereo not drawn) [Example 19], the inhibition in vivo at 27 mg/kg in experiment [1] (168 h, Table 3, dose 27 mg/kg, oral once daily 7 days, read-out: Adjuvant Arthritis, percent reduction in paw volume at the indicated dose) was determined as 0%. Besides, in experiment [2] (Table 3, Formula I), the ED50 is > 108 mg/kg.
`COc1ccc(-c2nc(C(O)(C(F)F)C(F)(F)F)[nH]c2-c2ccc(OC)cc2)cc1` (stereo not drawn) [Example 15, 4,5-bis(4-methoxyphenyl)-α-difluoromethyl-α-trifluoromethyl-1H-imidazole-2-methanol]: the ED50 in experiment [1] (Table 3, Formula I) was determined as 3 mg/kg; in experiment [2] (Table 3, Formula I), 1.4 mg/kg.
Take `COc1ccc(-c2nc(C(C)=O)[nH]c2-c2ccc(OC)cc2)cc1` [Example 40]: the inhibition in vivo at 50 mg/kg in experiment [1] (168 h, Table 4, dose 50 mg/kg, oral once daily 7 days, read-out: Adjuvant Arthritis, percent reduction in paw volume at the indicated dose) is 56%. For the same compound, the ED50 in experiment [2] (Table 4, Formula II) was > 135 mg/kg.
`CCC(O)(c1nc(-c2ccc(F)cc2)c(-c2ccc(F)cc2)[nH]1)C(F)(F)F` (stereo not drawn) [Example 31, 4,5-bis(4-fluorophenyl)-α-ethyl-α-trifluoromethyl-1H-imidazole-2-methanol]: the ED50 in experiment [1] (Table 3, Formula I) is 1.7 mg/kg; in experiment [2] (Table 3, Formula I), > 108 mg/kg.
`CSc1ccc(-c2[nH]c(C(C)(O)C(F)(F)F)nc2-c2ccc(F)cc2)cc1` (stereo not drawn) [Example 24]: the inhibition in vivo at 9 mg/kg in experiment [1] (setting [4]) turned out to be 51%. Besides, it took a dose of 102 mg/kg to reach the 50% effect level in experiment [2] (Table 3, Formula I) (ED50).
As to `O=C(c1nc(-c2ccc(F)cc2)c(-c2ccc(F)cc2)[nH]1)C(F)(F)F` [Example 8, 1-[4,5-Bis(4-fluorophenyl)-1H-imidazol-2-yl]-2,2,2-trifluoro-1-ethanone], in experiment [1] (setting [3]), the inhibition in vivo at 25 mg/kg worked out at 49%. Further, in experiment [2] (Table 4, Formula II), the ED50 was > 108 mg/kg.
In the same order, the values of `CSc1ccc(-c2[nH]c(C(=O)C(F)(F)F)nc2-c2ccc(F)cc2)cc1` [Example 37] are 24% and > 108 mg/kg.
With `OC(c1nc(-c2ccc(F)cc2)c(-c2ccc(F)cc2)[nH]1)C(F)(F)C(F)(F)F` (stereo not drawn) [Example 23], the 50% effective dose (ED50) is 6.8 mg/kg in experiment [1] (Table 3, Formula I) and 24 mg/kg in experiment [2] (Table 3, Formula I).
For `OC(c1nc(-c2ccc(F)cc2)c(-c2ccc(F)cc2)[nH]1)(C(F)(F)F)C(F)(F)F` [Example 1, 4,5-Bis(4-fluorophenyl)-α,α-di(trifluoromethyl)-1H-imidazole-2-methanol], the ED50 is 8 mg/kg in experiment [1] (Table 3, Formula I) and > 108 mg/kg in experiment [2] (Table 3, Formula I).
